Measured values as given in ChEMBL document CHEMBL1201862, “PubChem BioAssay data set” (2004).
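Interpolation was linear, between the two tested concentrations surrounding the appropriate level; five concentrations were tested over 48 hours in 96-well plates. GI50 = concentration required for 50% inhibition of growth.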 Calls of active or inactive are those of the source. No stated cut-off is given here; in the data, active = GI50 up to about 1.1 µM and inactive = higher. Where a SMILES comes first, the peptide text is derived from it. Bridges are numbered along the chain shown (N, C = ends). [ ]: non-standard residue; d: D form. The star is where a group is joined. ξ: configuration not given here. ξNMePhe(4-NMe2) = CNC(Cc1ccc(N(C)C)cc1)C(=O)O; Picolinoyl(3-OH) = O=C(c1ncccc1O)*; ξPip(4-oxo) = O=C1CCNC(C(=O)O)C1; Phg = N[CH](C(=O)O)c1ccccc1; Abu = CC[CH](N)C(=O)O

Columns and labels:
Experiment in all cases: NCI anticancer screen, dose series, 48 h
A498 = tested on: A498
A549 = tested on: A549
CAKI-1 = tested on: CAKI-1
CCRF-CEM = tested on: CCRF-CEM
HCC 2998 = tested on: HCC 2998
HCT-116 = tested on: HCT-116
HOP-62 = tested on: HOP-62
HOP-92 = tested on: HOP-92
IGROV-1 = tested on: IGROV-1
Malme-3M = tested on: Malme-3M
NCI-H460 = tested on: NCI-H460
OVCAR-4 = tested on: OVCAR-4
OVCAR-5 = tested on: OVCAR-5
OVCAR-8 = tested on: OVCAR-8
SF-268 = tested on: SF-268
SK-MEL-2 = tested on: SK-MEL-2
SK-MEL-5 = tested on: SK-MEL-5
SNB-19 = tested on: SNB-19
SR = tested on: SR
T47D = tested on: T47D

SMILES	GI50 (A498)	GI50 (A549)	GI50 (CAKI-1)	GI50 (CCRF-CEM)	GI50 (HCC 2998)	GI50 (HCT-116)	GI50 (HOP-62)	GI50 (HOP-92)	GI50 (IGROV-1)	GI50 (Malme-3M)	GI50 (NCI-H460)	GI50 (OVCAR-4)	GI50 (OVCAR-5)	GI50 (OVCAR-8)	GI50 (SF-268)	GI50 (SK-MEL-2)	GI50 (SK-MEL-5)	GI50 (SNB-19)	GI50 (SR)	GI50 (T47D)
CC1=NN(c2nc(N)nc(/C(C#N)=C\c3ccc([N+](=O)[O-])s3)n2)C(C)(C)C1	7.78 µM (inactive)	0.887 µM (active)	1.16 µM (inactive)	0.0175 µM (active)	1.41 µM (inactive)	0.244 µM (active)	0.316 µM (active)	0.302 µM (active)	0.284 µM (active)	0.764 µM (active)	0.209 µM (active)	2.55 µM (inactive)	3.46 µM (inactive)	0.113 µM (active)	0.408 µM (active)	0.375 µM (active)	0.625 µM (active)	1.66 µM (inactive)	0.018 µM (active)	0.0743 µM (active)
c1ccc2c(c1)NC1(N3CCCCC3)CCCCC21 (stereo not given)	32.8 µM (inactive)	30.5 µM (inactive)	55.6 µM (inactive)	32.4 µM (inactive)	76.4 µM (inactive)	37.9 µM (inactive)	> 100 µM (inactive)	20 µM (inactive)	28.2 µM (inactive)	58.2 µM (inactive)	50.6 µM (inactive)	56.4 µM (inactive)	35.2 µM (inactive)	63.2 µM (inactive)	52.5 µM (inactive)	49.3 µM (inactive)	56.1 µM (inactive)	51.5 µM (inactive)	32 µM (inactive)	20.9 µM (inactive)
CCOC(=O)c1nc2ccccc2nc1Nc1ccc(C(=O)OC)s1	> 100 µM (inactive)	> 100 µM (inactive)	> 100 µM (inactive)	> 100 µM (inactive)	> 100 µM (inactive)	> 100 µM (inactive)	> 100 µM (inactive)	> 100 µM (inactive)	> 100 µM (inactive)	18.5 µM (inactive)	> 100 µM (inactive)	> 100 µM (inactive)	> 100 µM (inactive)	> 100 µM (inactive)	> 100 µM (inactive)	> 100 µM (inactive)	> 100 µM (inactive)	> 100 µM (inactive)	> 100 µM (inactive)	> 100 µM (inactive)
COc1ccc(C[C@H]2NC[C@H](OC(C)=O)[C@H]2OC(C)=O)cc1	0.302 µM (active)	0.151 µM (active)	0.144 µM (active)	0.126 µM (active)	0.115 µM (active)	0.105 µM (active)	0.195 µM (active)	0.0417 µM (active)	0.15 µM (active)	0.158 µM (active)	0.172 µM (active)	0.104 µM (active)	0.122 µM (active)	0.191 µM (active)	0.0614 µM (active)	0.184 µM (active)	0.0665 µM (active)	0.0935 µM (active)	0.177 µM (active)	0.112 µM (active)
Nc1ccc2c(=S)c3ccccc3[nH]c2c1	61.7 µM (inactive)	23.3 µM (inactive)	9.23 µM (inactive)	18.8 µM (inactive)	53.5 µM (inactive)	24.3 µM (inactive)	24.3 µM (inactive)	26.2 µM (inactive)	28 µM (inactive)	40.3 µM (inactive)	27.4 µM (inactive)	62.8 µM (inactive)	> 61.2 µM (inactive)	52.5 µM (inactive)	65.9 µM (inactive)	51.9 µM (inactive)	33.5 µM (inactive)	41.6 µM (inactive)	25.1 µM (inactive)	20.1 µM (inactive)
CC(=O)OCCCOCn1c(Cc2ccccc2)c(C)c(=O)[nH]c1=O	> 100 µM (inactive)	> 100 µM (inactive)	> 100 µM (inactive)	> 100 µM (inactive)	> 100 µM (inactive)	> 100 µM (inactive)	> 100 µM (inactive)	> 100 µM (inactive)	> 100 µM (inactive)	> 100 µM (inactive)	> 100 µM (inactive)	> 100 µM (inactive)	> 100 µM (inactive)	> 100 µM (inactive)	> 100 µM (inactive)	> 100 µM (inactive)	> 100 µM (inactive)	> 100 µM (inactive)	> 100 µM (inactive)	> 100 µM (inactive)
C[C@@H]1CCC2[C@@H](C)C(=O)O[C@@H]3C4C[C@@H]1[C@@]23OO[C@@]4(C)O (stereo not given in full)	> 100 µM (inactive)	> 100 µM (inactive)	> 100 µM (inactive)	54.5 µM (inactive)	> 100 µM (inactive)	88.3 µM (inactive)	48.3 µM (inactive)	> 100 µM (inactive)	19.7 µM (inactive)	> 100 µM (inactive)	52 µM (inactive)	> 100 µM (inactive)	> 100 µM (inactive)	82.8 µM (inactive)	76 µM (inactive)	> 100 µM (inactive)	2.81 µM (inactive)	> 100 µM (inactive)	> 100 µM (inactive)	87.3 µM (inactive)
COC(=O)C1(Cc2ccc3c(c2)CCC3)Cc2ccc3c(c2C1=O)CCC3 (stereo not given)	5.61 µM (inactive)	9.48 µM (inactive)	5.45 µM (inactive)	5.21 µM (inactive)	6.95 µM (inactive)	3.66 µM (inactive)	7.23 µM (inactive)	4.84 µM (inactive)	5.46 µM (inactive)	4.02 µM (inactive)	12.7 µM (inactive)	7.73 µM (inactive)	21.1 µM (inactive)	15.2 µM (inactive)	10 µM (inactive)	4.32 µM (inactive)	4.35 µM (inactive)	8.91 µM (inactive)	2.55 µM (inactive)	4.35 µM (inactive)
Cc1cc(S(N)(=O)=O)c(SCc2nc(N)nc(N(C)C)n2)cc1Cl	> 10 µM (inactive)	> 10 µM (inactive)	> 10 µM (inactive)	> 10 µM (inactive)	> 10 µM (inactive)	> 10 µM (inactive)	> 10 µM (inactive)	> 10 µM (inactive)	> 10 µM (inactive)	> 10 µM (inactive)	> 10 µM (inactive)	> 10 µM (inactive)	> 10 µM (inactive)	> 10 µM (inactive)	> 10 µM (inactive)	> 10 µM (inactive)	> 10 µM (inactive)	> 10 µM (inactive)	> 10 µM (inactive)	> 10 µM (inactive)
NC1NCCC(=O)N1CCc1c[nH]c2ccccc12 (stereo not given)	12.7 µM (inactive)	26.1 µM (inactive)	29.2 µM (inactive)	23.6 µM (inactive)	18.5 µM (inactive)	13.6 µM (inactive)	19.2 µM (inactive)	31.1 µM (inactive)	25.4 µM (inactive)	19.9 µM (inactive)	16.8 µM (inactive)	27.1 µM (inactive)	23.6 µM (inactive)	39.7 µM (inactive)	22.1 µM (inactive)	19.9 µM (inactive)	16.9 µM (inactive)	33.7 µM (inactive)	29 µM (inactive)	37.2 µM (inactive)
CN1C(=O)CN(NC(=O)C2=C(O)c3ccc(Br)cc3S(=O)(=O)N2)C1=S	> 100 µM (inactive)	> 100 µM (inactive)	> 100 µM (inactive)	19.2 µM (inactive)	> 100 µM (inactive)	> 100 µM (inactive)	> 100 µM (inactive)	> 100 µM (inactive)	> 100 µM (inactive)	33.4 µM (inactive)	> 100 µM (inactive)	> 100 µM (inactive)	> 100 µM (inactive)	> 100 µM (inactive)	> 100 µM (inactive)	> 100 µM (inactive)	> 100 µM (inactive)	> 100 µM (inactive)	46.1 µM (inactive)	> 100 µM (inactive)
O=S(=O)(O)c1cc(O)c2c(/N=C\c3ccccc3O)cc(S(=O)(=O)O)cc2c1	> 100 µM (inactive)	> 100 µM (inactive)	> 100 µM (inactive)	> 100 µM (inactive)	> 100 µM (inactive)	> 100 µM (inactive)	> 100 µM (inactive)	> 100 µM (inactive)	> 100 µM (inactive)	> 100 µM (inactive)	> 100 µM (inactive)	> 100 µM (inactive)	> 100 µM (inactive)	> 100 µM (inactive)	> 100 µM (inactive)	> 100 µM (inactive)	> 100 µM (inactive)	> 100 µM (inactive)	> 100 µM (inactive)	82.6 µM (inactive)
CC1=C/C(O)CC(=O)Cc2nc(co2)C(=O)N2CCC=C2C(=O)OC(C(C)C)C(C)/C=C/C(=O)NC\C=C\1.CCC1NC(=O)C(NC(=O)c2ncccc2O)C(C)OC(=O)C(c2ccccc2)NC(=O)C2CC(=O)CCN2C(=O)C(Cc2ccc(N(C)C)cc2)N(C)C(=O)C2CCCN2C1=O (stereo not given) ({Picolinoyl(3-OH)}-T[Abu]P[ξNMePhe(4-NMe2)][ξPip(4-oxo)][Phg]; ester 1-C; configuration not given here)	10 µM (inactive)	16.7 µM (inactive)	28.2 µM (inactive)	1.9 µM (inactive)	11.6 µM (inactive)	6.4 µM (inactive)	14.6 µM (inactive)	3.78 µM (inactive)	11.4 µM (inactive)	12.8 µM (inactive)	3.75 µM (inactive)	12.1 µM (inactive)	31.5 µM (inactive)	25.6 µM (inactive)	24.4 µM (inactive)	7.21 µM (inactive)	4.91 µM (inactive)	13.1 µM (inactive)	3.86 µM (inactive)	15.4 µM (inactive)
